# Measurements as given in patent US20080249043A1, “Methods and Compositions Involving Protein Kinase C-Delta” (priority 2004, published 2008).
# How the values were obtained:
# [1] = tested on: HeLa cells; assay: Apoptosis by PI staining and flow cytometry (subG1 population) in HeLa cells; assay type: cell-based
# Procedure: Cell culture, transfection and treatment—HeLa cells were cultured in Dulbecco's modified Eagle's medium (DMEM) containing 10% fetal bovine serum, 2 mM L-glutamine and penicillin (100 units/ml)-streptomycin (100 μg/ml) at 37° C. in a humidified 5% CO2 atmosphere. HeLa cells at 90% confluence were transfected with different mammalian expression vectors using Lipofectamin 2000 according to the manufacturer's protocol (Invitrogen Inc., Carlsbad, Calif.). At 24 h or 48 h after transfection, cells were treated with 1:100 dilution of AD198 that was dissolved in dimethyl sulfoxide (DMSO). For down-regulation of PLS3, HeLa cells at 50% confluence were transfected with siRNA against PLS3 or a scrambled control. At 48 h, cells were treated with AD198 for 16 h and harvested for flow cytometry. The whole cell lysate was extracted for analysis with Western blotting.
# Analysis of apoptosis and determination of the transmembrane potential in mitochondria—Cell death was quantified by propidium iodide (PI) staining, followed by flow cytometry (Becton-Dickinson). HeLa cells were fixed in 0.5 ml cold 70% ethanol at −20° C. overnight. Cell pellet were resuspended in 300 μl of PBS containing 0.025 mg/ml PI, 0.05% Triton X-100, 0.1 mg/ml RNase A and incubated at room temperature for 30 min. The DNA content was evaluated by FACScan. For mitochondrial potential analysis, HeLa cells were incubated with MitoTracker Green at 37° C. for 20 min. The cells were collected and washed with PBS and analyzed by FACScan.
# Cell culture, transfection, selection and treatment—HeLa cells were cultured in Dulbecco's modified Eagle's medium (DMEM) with 10% fetal bovine serum, 2 mM L-glutamine, 100 units/ml penicillin and 100 μg/ml streptomycin at 37° C. HeLa cells at 90% confluence were transfected with different mammalian expression vectors or siRNA using Lipofectamin 2000 according to the manufacturer's protocol (Invitrogen Inc., Carlsbad, Calif.). At 48 h after transfection, cells were incubated with 5 μM AD198 or dimethyl sulfoxide (DMSO) for 4 h or 16 h. After transfection, cells were selected with 1 mg/ml G418 for 2 wk. After corresponding mock-transfected cells were killed by G418, the concentration of G418 was decreased to 0.5 mg/ml and maintained for another 2 wk. The whole cell lysates or subcellular fractions were extracted for Western blotting analysis (Liu et al. (2003)).
# Analysis of apoptosis—HeLa cells were harvested and fixed in 70% ethanol at −20° C. overnight. Cells were then washed with PBS and stained with 0.025 mg/ml propidium iodide (PI), 0.05% Triton X-100, 0.1 mg/ml RNase A for 30 min at room temperature. The DNA content was analyzed by FACScan (Becton-Dickinson), and the subG0/G1 population was used to represent apoptosis.
# [2] = tested on: HeLa cells; assay: CL distribution in mitochondria by NAO staining and flow cytometry in HeLa cells; assay type: cell-based; conditions: 5 μM AD198 4 h
# Procedure: (a) HeLa cells were treated with 5 μM AD198 or DMSO as control for 4 h. Cells were stained with different concentrations of NAO and the median fluorescent intensity was determined by flow cytometry. (b) The median fluorescent intensity value of control cells stained with 35 μM NAO was considered as 100% and used to calculate the percentages in each NAO concentration. Results were average of two independent experiments. (c) After transfection for 48 h, HeLa-control, HeLa-PLS3 and HeLa-PLS3(T21D) cells were stained with different concentrations of NAO and the median fluorescent intensity was determined by flow cytometry. The median fluorescent intensity value of 35 μM NAO was considered as 100% and used to calculate the percentage in each NAO concentration. Results were average of two independent experiments.
# Analysis of CL distribution in the mitochondria outer membrane—NAO was used to determine the distribution of CL in mitochondria (Garcia Fernandez, et al. Anal Biochem 328:174-180 (2004)). When NAO binds CL at 2:1 ratio (in the saturated state), fluorescence emission occurs at 630 nm. When cells were incubated with increasing concentrations of NAO, NAO saturates CL in the outer member first and then the inner member of mitochondria. Lower concentrations of NAO (2.5-12 μM) were used to saturate CL in the mitochondrial outer member and to measure the amount of CL in that compartment. […]
compound,measurement,setting,value
"CCCCC(=O)OCC(=O)[C@]1(O)Cc2c(O)c3c(c(O)c2[C@@H](O[C@H]2C[C@H](NCc4ccccc4)[C@H](O)[C@H](C)O2)C1)C(=O)c1c(OC)cccc1C3=O [AD198, N-benzyladriamycin-14-valerate]",AD198-induced apoptosis,"[1]; HeLa cells expressing PLS3(T21A), 5 μM AD198, 16 h (FIG. 9)",same degree of apoptosis as the control cells
same,percentage of AD198-induced apoptosis,"[1]; HeLa cells expressing wild-type PLS3, 5 μM AD198, 16 h (FIG. 9)",31%
same,apoptosis after AD198 treatment,"[1]; HeLa cells expressing wild-type PLS3, 5 μM AD198, 16 h (FIG. 11), DMSO 9%",43%
same,apoptosis after AD198 treatment,"[1]; HeLa cells transfected with PLS3(T21D), 5 μM AD198, 16 h (FIG. 11), DMSO 17%",27%
same,AD198-induced apoptosis when PKC-δ down regulated by siRNA,"[1]; HeLa cells, AD198 1, 5 and 10 μM, 16 h",less apoptosis was detected
same,sensitivity to AD198-induced apoptosis of cells with overexpression of PLS3,"[1]; HeLa cells, three concentrations of AD198, 16 h, versus without PLS3 overexpression",more sensitive
same,AD198-induced apoptosis in cells transfected with siRNA against PLS3,"[1]; HeLa cells, versus scrambled siRNA control, 16 h",suppressed
same,apoptosis after AD198 treatment,"[1]; HeLa-control cells, 5 μM AD198, 16 h (FIG. 11), DMSO 6%",22%
same,percentage of AD198-induced apoptosis,"[1]; control HeLa cells, 5 μM AD198, 16 h (FIG. 9)",7%
same,absolute NAO fluorescence (amount of CL),[2]; HeLa cells,decrease in absolute NAO fluorescence
same,percentage of CL in the outer membrane,[2]; NAO concentrations lower than 9 μM,higher percentage of CL than control cells
